For the assay, the system named is ABCA-1 gene. In words: compounds tested and found to elevate cellular expression of the ABCA-1 gene (Examples 1-6; test not named). The assay is classed as cell-based. The method, then: Activity testing is conducted as described in those patents and patent applications referenced above, and in the Examples below, and by methods apparent to one skilled in the art.
Regarding `Cc1ccc(-c2csc(-n3ncc(C(=O)NC(C)c4ccccc4)c3C(C)C)n2)cc1` (centres unmarked) [5-isopropyl-1-(4-p-tolyl-thiazol-2-yl)-1H-pyrazole-4-carboxylic acid (1-phenyl-ethyl)-amide], the “cellular expression of the ABCA-1 gene” value is reported as “elevate cellular expression of the ABCA-1 gene”.
For `Cc1ccc(-c2csc(-n3ncc(C(=O)NCCC(C)C)c3C(C)C)n2)cc1` [5-isopropyl-1-(4-p-tolyl-thiazol-2-yl)-1H-pyrazole-4-carboxylic acid (3-methyl-butyl)-amide] the value was “elevate cellular expression of the ABCA-1 gene”; for `Cc1ccc(-c2csc(-n3ncc(C(=O)NC4CC4)c3C(C)C)n2)cc1` [5-isopropyl-1-(4-p-tolyl-thiazol-2-yl)-1H-pyrazole-4-carboxylic acid cyclopropylamide], “elevate cellular expression of the ABCA-1 gene”; for `Cc1ccc(-c2csc(-n3ncc(C(=O)NCCc4ccccc4)c3C)n2)cc1` [5-methyl-1-(4-p-tolyl-thiazol-2-yl)-1H-pyrazole-4-carboxylic acid phenethyl-amide], “elevate cellular expression of the ABCA-1 gene”.
Next, `O=[N+]([O-])c1ccc(-c2cnc3ccc(Cl)cn23)cc1` [6-chloro-3-(4-nitrophenyl)-4-hydroimidazolo[1,2-a]pyridine]: “elevate cellular expression of the ABCA-1 gene”.
Next, `Cc1ccc2nc3c(nc2c1)-c1ccccc1C3=O` [7-methylindeno[2,3-b]quinoxalin-1′-one]: “elevate cellular expression of the ABCA-1 gene”; `CSC(N)=N/N=C/c1ccc(Cl)cc1` [(1 Z,3E)-2,3-diaza-4-(4-chlorophenyl)-1-methylthiobuta-1,3-dienylamine]: “elevate cellular expression of the ABCA-1 gene”.
As to `COc1ccc(C(=O)O/N=C(/N)c2cccnc2)cc1` [(1E)-2-amino-1-aza-2-(3-pyridyl)vinyl 4-methoxybenzoate], the “cellular expression of the ABCA-1 gene” value was “elevate cellular expression of the ABCA-1 gene”.
`COc1ccc(/C(N)=N\OC(=O)c2ccccc2OC)cc1` [(1E)-2-amino-1-aza-2-(4-methoxyphenyl)vinyl 2-methoxybenzoate]: the “cellular expression of the ABCA-1 gene” value is recorded as “elevate cellular expression of the ABCA-1 gene”.
Consider `O=C(Nc1nc2c(Cl)cccc2s1)c1ccc2c(c1)OC(F)(F)O2` [(2,2-difluorobenzo[3,4-d]1,3-dioxolen-5-yl)-N-(4-chlorobenzothiazol-2-yl)carboxamide], for which the “cellular expression of the ABCA-1 gene” value is “elevate cellular expression of the ABCA-1 gene”.
For `O=C(NC1=NCCS1)c1ccc(Cl)cc1Cl` [(2,4-dichlorophenyl)-N-(1,3-thiazolin-2-yl)carboxamide] the value was “elevate cellular expression of the ABCA-1 gene”; for `O=C(Nc1nc(-c2ccc3ccccc3c2)cs1)c1ccc(F)cc1F` [(2,4-difluorophenyl)-N-(4-(2-naphthyl)(1,3-thiazol-2-yl))carboxamide], “elevate cellular expression of the ABCA-1 gene”.
For `O=C(Nc1ncc(-c2ccccc2)s1)c1ccc(F)cc1F` [(2,4-difluorophenyl)-N-(5-phenyl(1,3-thiazol-2-yl)) carboxamide] the value was “elevate cellular expression of the ABCA-1 gene”; for `O=C(Nc1nc(-c2ccc(Cl)cc2)cs1)c1ccc(F)cc1F` [(2,4-difluorophenyl)-N-[4-(4-chlorophenyl)(1,3-thiazol-2-yl)]carboxamide], “elevate cellular expression of the ABCA-1 gene”; for `Cc1cc(C(=O)Nc2ncc(-c3ccccc3)s2)c(C)o1` [(2,5-dimethyl(3-furyl))—N-(5-phenyl(1,3-thiazol-2-yl))carboxamide], “elevate cellular expression of the ABCA-1 gene”.
In the case of `Nc1ccccc1C(=O)Nc1ccc(Cl)cc1` [(2-aminophenyl)-N-(4-chlorophenyl)carboxamide], the “cellular expression of the ABCA-1 gene” value is listed as “elevate cellular expression of the ABCA-1 gene”.
For `Cc1ccc(NC(=O)c2ccccc2N)cc1` [(2-aminophenyl)-N-(4-methylphenyl)carboxamide] the value was “elevate cellular expression of the ABCA-1 gene”; for `O=C(NCCc1ccccn1)c1ccc([N+](=O)[O-])cc1Cl` [(2-chloro-4-nitrophenyl)-N-(2-(2-pyridyl)ethyl)carboxamide], “elevate cellular expression of the ABCA-1 gene”.
For `O=C(NCCc1ccccn1)c1ccccc1Cl` [(2-chlorophenyl)-N-(2-(2-pyridyl)ethyl)carboxamide] the value was “elevate cellular expression of the ABCA-1 gene”; for `O=C(Nc1ccc(Cl)cc1)c1ccccc1Cl` [(2-chlorophenyl)-N-(4-chlorophenyl)carboxamide], “elevate cellular expression of the ABCA-1 gene”.
Regarding `O=C(NNC(=S)Nc1ccccc1Cl)c1ccccc1Cl` [(2-chlorophenyl)-N-({[(2-chlorophenyl)amino]thioxomethyl}amino)carboxamide], the “cellular expression of the ABCA-1 gene” value is on record as “elevate cellular expression of the ABCA-1 gene”.
Next, `O=C(NC1=NCCS1)c1ccccc1F` [(2-fluorophenyl)-N-(1,3-thiazolin-2-yl)carboxamide]: “elevate cellular expression of the ABCA-1 gene”; `Cc1ccc2cc(NC(=O)c3ccccc3F)ccc2n1` [(2-fluorophenyl)-N-(2-methyl(6-quinolyl))carboxamide]: “elevate cellular expression of the ABCA-1 gene”.
As for `O=C1CSC(NC(=O)c2ccccc2C(F)(F)F)=N1` [(2-trifluoromethylphenyl)-N-(4-oxo(1,3-thiazolin-2-yl))carboxamide], the “cellular expression of the ABCA-1 gene” value was “elevate cellular expression of the ABCA-1 gene”.
Turning to `CCN(CCCN(CC)c1nc2cc(C(=O)Nc3ccc(OC)cc3)ccc2o1)C(=O)c1ccoc1` [(2-{ethyl[3-(N-ethyl-3-furylcarbonylamino)propyl]amino}benzoxazol-5-yl)-N-(4-methoxyphenyl)carboxamide], the “cellular expression of the ABCA-1 gene” value is listed as “elevate cellular expression of the ABCA-1 gene”.
Next, `Cc1ccc2nc(/C(C#N)=C/c3ccco3)[nH]c2c1` [(2E)-3-(2-furyl)-2-(5-methylbenzimidazol-2-yl)prop-2-enenitrile]: “elevate cellular expression of the ABCA-1 gene”.
For `O=C(/C=C/c1ccccc1)NCCN(C(=O)Nc1cccc(C(F)(F)F)c1)c1ccccc1` [(2E)-3-phenyl-N-[2-(phenyl {N-[3-(trifluoromethyl)phenyl]carbamoyl}amino)ethyl]prop-2-enamide] the value was “elevate cellular expression of the ABCA-1 gene”.
For `O=C(Nc1cccc(Cl)c1)Nc1ccc2c(c1)OCCO2` [(2H,3H-benzo[e]1,4-dioxin-6-ylamino)-N-(3-chlorophenyl)lcarboxamide], the “cellular expression of the ABCA-1 gene” value is given as “elevate cellular expression of the ABCA-1 gene”.
Next, `O=C(Nc1ccc2c(c1)OCCO2)NC1CCCCC1` [(2H,3H-benzo[e]1,4-dioxin-6-ylamino)-N-cyclohexylcarboxamide]: “elevate cellular expression of the ABCA-1 gene”.
For `COc1cc(C(=O)NC2=NCCS2)cc(OC)c1OC` [(3,4,5-trimethoxyphenyl)-N-(1,3-thiazolin-2-yl)carboxamide] the value was “elevate cellular expression of the ABCA-1 gene”.
Next, `COc1cc(C(=O)NC2=NC(=O)CS2)cc(OC)c1OC` [(3,4,5-trimethoxyphenyl)-N-(4-oxo(1,3-thiazolin-2-yl))carboxamide]: “elevate cellular expression of the ABCA-1 gene”; `O=C(NC1=NCCS1)c1ccc(Cl)c(Cl)c1` [(3,4-dichlorophenyl)-N-(1,3-thiazolin-2-yl)carboxamide]: “elevate cellular expression of the ABCA-1 gene”; `O=C1CSC(NC(=O)c2ccc(Cl)c(Cl)c2)=N1` [(3,4-dichlorophenyl)-N-(4-oxo(1,3-thiazolin-2-yl))carboxamide]: “elevate cellular expression of the ABCA-1 gene”.
Take `O=C(Nc1nc2ccccc2c(=O)o1)c1ccc(Cl)c(Cl)c1` [(3,4-dichlorophenyl)-N-(4-oxobenzo[d]1,3-oxazin-2-yl)carboxamide]: the “cellular expression of the ABCA-1 gene” value is “elevate cellular expression of the ABCA-1 gene”.
For `O=C(NC1=NCCS1)c1ccc(F)c(F)c1` [(3,4-difluorophenyl)-N-(1,3-thiazolin-2-yl)carboxamide] the value was “elevate cellular expression of the ABCA-1 gene”.
Next, `O=C1CSC(NC(=O)c2ccc(F)c(F)c2)=N1` [(3,4-difluorophenyl)-N-(4-oxo(1,3-thiazolin-2-yl))carboxamide]: “elevate cellular expression of the ABCA-1 gene”.
Next, `Cc1ccc(C(=O)Nc2nc(-c3ccccc3)cs2)cc1C` [(3,4-dimethylphenyl)-N-(4-phenyl(1,3-thiazol-2-yl))carboxamide]: “elevate cellular expression of the ABCA-1 gene”.
On to `O=C(NC1=NCCS1)c1cc(C(F)(F)F)cc(C(F)(F)F)c1` [(3,5-bistrifluoromethylphenyl)-N-(1,3-thiazolin-2-yl)carboxamide], for which the “cellular expression of the ABCA-1 gene” value is listed as “elevate cellular expression of the ABCA-1 gene”.
Next, `COc1cc(OC)cc(C(=O)NC2=NCCS2)c1` [(3,5-dimethoxyphenyl)-N-(1,3-thiazolin-2-yl)carboxamide]: “elevate cellular expression of the ABCA-1 gene”; `COc1cc(OC)cc(C(=O)NC2=NC(=O)CS2)c1` [(3,5-dimethoxyphenyl)-N-(4-oxo(1,3-thiazolin-2-yl))carboxamide]: “elevate cellular expression of the ABCA-1 gene”.
For `O=C(Nc1ccc2ccccc2c1)c1sc2ccccc2c1Cl` [(3-chlorobenzo[b]thiophen-2-yl)-N-(2-naphthyl)carboxamide] the value was “elevate cellular expression of the ABCA-1 gene”.

Source of the values: patent publication US6900219B2, “ABCA-1 elevating compounds” (CV Therapeutics, Inc., priority 2002, dated 2005).
